Test results: PubChem BioAssay (NCI)
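The compound was tested at five concentrations on cells cultured in 96-well plates, with a 48-hour exposure period. Abbreviation: GI50, concentration required for 50% inhibition of growth. TGI is the concentration that stops growth completely.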

What was measured:
Assay in all cases: inhibition of tumour cell growth, NCI panel, 48 h
BT-549 breast = system: BT-549 breast
SNB-19 CNS = system: SNB-19 CNS
LOX IMVI melanoma = system: LOX IMVI melanoma
SF-268 CNS = system: SF-268 CNS
NCI-H226 lung = system: NCI-H226 lung
SK-MEL-5 melanoma = system: SK-MEL-5 melanoma
NCI-H460 lung = system: NCI-H460 lung
IGROV1 ovarian = system: IGROV1 ovarian
NCI/ADR-RES ovarian = system: NCI/ADR-RES ovarian
HCC-2998 colon = system: HCC-2998 colon
DU-145 prostate = system: DU-145 prostate
MDA-MB-468 breast = system: MDA-MB-468 breast
HOP-92 NSCLC = system: HOP-92 NSCLC
T-47D breast = system: T-47D breast
786-0 renal = system: 786-0 renal
HL-60(TB) leukemia = system: HL-60(TB) leukemia
UACC-62 melanoma = system: UACC-62 melanoma
A498 renal = system: A498 renal
A549 NSCLC = system: A549 NSCLC
SF-295 CNS = system: SF-295 CNS
SK-MEL-28 melanoma = system: SK-MEL-28 melanoma
RXF 393 renal = system: RXF 393 renal
KM12 colon = system: KM12 colon
SK-OV-3 ovarian = system: SK-OV-3 ovarian
CCRF-CEM leukemia = system: CCRF-CEM leukemia
SF-539 CNS = system: SF-539 CNS
MCF7 breast = system: MCF7 breast
ACHN renal = system: ACHN renal
MOLT-4 leukemia = system: MOLT-4 leukemia
CAKI-1 renal = system: CAKI-1 renal
RPMI-8226 leukemia = system: RPMI-8226 leukemia
NCI-H23 lung = system: NCI-H23 lung
HCT-116 colon = system: HCT-116 colon
HCT-15 colon = system: HCT-15 colon
OVCAR-3 ovarian = system: OVCAR-3 ovarian
TK-10 renal = system: TK-10 renal
SW-620 colon = system: SW-620 colon
MDA-MB-435 = system: MDA-MB-435
HS 578T breast = system: HS 578T breast
MALME-3M melanoma = system: MALME-3M melanoma
HOP-62 NSCLC = system: HOP-62 NSCLC
SK-MEL-2 melanoma = system: SK-MEL-2 melanoma
SNB-75 CNS = system: SNB-75 CNS
UO-31 renal = system: UO-31 renal
NCI-H522 lung = system: NCI-H522 lung
OVCAR-5 ovarian = system: OVCAR-5 ovarian
M14 melanoma = system: M14 melanoma
EKVX NSCLC = system: EKVX NSCLC
MDA-MB-231 breast = system: MDA-MB-231 breast
PC-3 prostate = system: PC-3 prostate
UACC-257 melanoma = system: UACC-257 melanoma
COLO 205 colon = system: COLO 205 colon
SN12C renal = system: SN12C renal
U251 CNS = system: U251 CNS

SMILES: Cc1ccc(C2CC(c3ccc(S(=O)(=O)NCCNc4nc(Nc5ccc(F)cc5)nc(N(C)C)n4)cc3)=Nc3c(N)nc(N)nc3N2)cc1 (stereo not drawn)
- GI50 (BT-549 breast): 5.46 µM
- TGI (BT-549 breast): 59.4 µM
- GI50 (SNB-19 CNS): 13.1 µM
- TGI (SNB-19 CNS): > 100 µM
- GI50 (LOX IMVI melanoma): 2090 nM
- TGI (LOX IMVI melanoma): 5.11 µM
- GI50 (SF-268 CNS): 7.53 µM
- TGI (SF-268 CNS): > 100 µM
- GI50 (NCI-H226 lung): > 100 µM
- TGI (NCI-H226 lung): > 100 µM
- GI50 (SK-MEL-5 melanoma): 4.98 µM
- TGI (SK-MEL-5 melanoma): 20.6 µM
- GI50 (NCI-H460 lung): 4.76 µM
- TGI (NCI-H460 lung): > 100 µM
- GI50 (IGROV1 ovarian): 64.4 µM
- TGI (IGROV1 ovarian): > 100 µM
- GI50 (NCI/ADR-RES ovarian): > 100 µM
- TGI (NCI/ADR-RES ovarian): > 100 µM
- GI50 (HCC-2998 colon): 2930 nM
- TGI (HCC-2998 colon): 41.1 µM
- GI50 (DU-145 prostate): > 100 µM
- TGI (DU-145 prostate): > 100 µM
- GI50 (MDA-MB-468 breast): 2720 nM
- TGI (MDA-MB-468 breast): 8.52 µM
- GI50 (HOP-92 NSCLC): 2540 nM
- TGI (HOP-92 NSCLC): 21 µM
- GI50 (T-47D breast): 8.75 µM
- TGI (T-47D breast): > 100 µM
- GI50 (786-0 renal): 7.06 µM
- TGI (786-0 renal): > 100 µM
- GI50 (HL-60(TB) leukemia): 2940 nM
- TGI (HL-60(TB) leukemia): 20.2 µM
- GI50 (UACC-62 melanoma): 20.9 µM
- TGI (UACC-62 melanoma): > 100 µM
- GI50 (A498 renal): > 100 µM
- TGI (A498 renal): > 100 µM
- GI50 (A549 NSCLC): > 100 µM
- TGI (A549 NSCLC): > 100 µM
- GI50 (SF-295 CNS): 6.6 µM
- TGI (SF-295 CNS): > 100 µM
- GI50 (SK-MEL-28 melanoma): 26.9 µM
- TGI (SK-MEL-28 melanoma): > 100 µM
- GI50 (RXF 393 renal): 2270 nM
- TGI (RXF 393 renal): 9.12 µM
- GI50 (KM12 colon): 4.56 µM
- TGI (KM12 colon): > 100 µM
- GI50 (SK-OV-3 ovarian): > 100 µM
- TGI (SK-OV-3 ovarian): > 100 µM
- GI50 (CCRF-CEM leukemia): 2810 nM
- TGI (CCRF-CEM leukemia): > 100 µM
- GI50 (SF-539 CNS): 3.29 µM
- TGI (SF-539 CNS): 78.9 µM
- GI50 (MCF7 breast): 3.08 µM
- TGI (MCF7 breast): > 100 µM
- GI50 (ACHN renal): > 100 µM
- TGI (ACHN renal): > 100 µM
- GI50 (MOLT-4 leukemia): 2200 nM
- TGI (MOLT-4 leukemia): 7.53 µM
- GI50 (CAKI-1 renal): 8.06 µM
- TGI (CAKI-1 renal): > 100 µM
- GI50 (RPMI-8226 leukemia): 2940 nM
- TGI (RPMI-8226 leukemia): > 100 µM
- GI50 (NCI-H23 lung): 78.8 µM
- TGI (NCI-H23 lung): > 100 µM
- GI50 (HCT-116 colon): 3.81 µM
- TGI (HCT-116 colon): > 100 µM
- GI50 (HCT-15 colon): 4.95 µM
- TGI (HCT-15 colon): > 100 µM
- GI50 (OVCAR-3 ovarian): 9.93 µM
- TGI (OVCAR-3 ovarian): > 100 µM
- GI50 (TK-10 renal): > 100 µM
- TGI (TK-10 renal): > 100 µM
- GI50 (SW-620 colon): 8.04 µM
- TGI (SW-620 colon): > 100 µM
- GI50 (MDA-MB-435): 8.79 µM
- TGI (MDA-MB-435): > 100 µM
- GI50 (HS 578T breast): 19.4 µM
- TGI (HS 578T breast): > 100 µM
- GI50 (MALME-3M melanoma): 4.65 µM
- TGI (MALME-3M melanoma): 33.2 µM
- GI50 (HOP-62 NSCLC): > 100 µM
- TGI (HOP-62 NSCLC): > 100 µM
- GI50 (SK-MEL-2 melanoma): 11.2 µM
- TGI (SK-MEL-2 melanoma): 77.7 µM
- GI50 (SNB-75 CNS): > 100 µM
- TGI (SNB-75 CNS): > 100 µM
- GI50 (UO-31 renal): > 100 µM
- TGI (UO-31 renal): > 100 µM
- GI50 (NCI-H522 lung): 21.3 µM
- TGI (NCI-H522 lung): > 100 µM
- GI50 (OVCAR-5 ovarian): > 100 µM
- TGI (OVCAR-5 ovarian): > 100 µM
- GI50 (M14 melanoma): 4.56 µM
- TGI (M14 melanoma): > 100 µM
- GI50 (EKVX NSCLC): 5.84 µM
- TGI (EKVX NSCLC): > 100 µM
- GI50 (MDA-MB-231 breast): 3.86 µM
- TGI (MDA-MB-231 breast): > 100 µM
- GI50 (PC-3 prostate): 3.33 µM
- TGI (PC-3 prostate): > 100 µM
- GI50 (UACC-257 melanoma): 26 µM
- TGI (UACC-257 melanoma): > 100 µM
- GI50 (COLO 205 colon): 11.5 µM
- TGI (COLO 205 colon): > 100 µM
- GI50 (SN12C renal): > 100 µM
- TGI (SN12C renal): > 100 µM
- GI50 (U251 CNS): 7.08 µM
- TGI (U251 CNS): > 100 µM
